Laboratory results published in patent US20260070899A1, “N-(2-(4-CYANOTHIAZOLIDIN-3-YL)-2-OXOETHYL)-QUINOLINE-4-CARBOXAMIDES” (AstraZeneca AB, priority 2022, published 2026).

Experiments:
Assay in all cases: biochemical
hFAP = target: T1, hFAP (Homo sapiens, UniProt Q12884);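 note: substrate fluorescence read at room temperature in darkness, IC50 obtained by one-site dose-response fitting of percent inhibition against log concentration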
T1 sequence (Q12884 38-760): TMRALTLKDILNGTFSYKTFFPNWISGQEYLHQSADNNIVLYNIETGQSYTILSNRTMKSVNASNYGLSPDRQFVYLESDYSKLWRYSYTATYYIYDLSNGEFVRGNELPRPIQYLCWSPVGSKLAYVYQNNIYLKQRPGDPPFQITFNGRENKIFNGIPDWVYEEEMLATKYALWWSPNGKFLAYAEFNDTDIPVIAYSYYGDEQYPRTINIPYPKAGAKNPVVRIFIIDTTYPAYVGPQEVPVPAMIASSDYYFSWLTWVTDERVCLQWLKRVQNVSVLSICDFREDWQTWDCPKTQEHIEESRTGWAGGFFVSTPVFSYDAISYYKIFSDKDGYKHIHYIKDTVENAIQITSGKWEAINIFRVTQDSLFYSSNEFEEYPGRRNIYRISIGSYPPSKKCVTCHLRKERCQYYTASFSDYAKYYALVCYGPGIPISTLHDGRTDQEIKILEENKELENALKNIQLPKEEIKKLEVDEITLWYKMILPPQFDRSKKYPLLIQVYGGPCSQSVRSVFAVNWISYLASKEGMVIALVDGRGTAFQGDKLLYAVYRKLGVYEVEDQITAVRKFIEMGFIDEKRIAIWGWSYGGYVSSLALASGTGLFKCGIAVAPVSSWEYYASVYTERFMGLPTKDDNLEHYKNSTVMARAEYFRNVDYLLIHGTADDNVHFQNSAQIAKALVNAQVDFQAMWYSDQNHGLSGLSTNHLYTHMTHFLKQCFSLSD
Experimental: 384 low volume black plates (Greiner #784076) were used. 4 μL, 0.48 nM enzyme solution (100 mM Tris HCl, 100 mM NaCl, 0.05% Chaps, pH 7.4) was added to 40 nL compounds (in DMSO) at 10 CR, 3 fold dilution series from 50 μM FAC. Plates were incubated for 15 min at rt in dark. 4 μL, 40 μM substrate solution (100 mM Tris HCl, 100 mM NaCl, 0.05% Chaps, pH 7.4) was added to each well. Plates were centrifuged at 1000 rpm and incubated for 30 min at rt in dark. The plates were read on a PHERAstar® reader with excitation 340 nm and emission 460 nm. Data were analyzed in Genedata Screener®. IC50 values were determined by plotting % inhibition versus log compound concentration and using a one site dose response model.

[1] = target: T2, Prolyl endopeptidase, Prolyl Oligopeptidase (hPREP) (Homo sapiens, UniProt P48147)
T2 sequence (P48147 1-710): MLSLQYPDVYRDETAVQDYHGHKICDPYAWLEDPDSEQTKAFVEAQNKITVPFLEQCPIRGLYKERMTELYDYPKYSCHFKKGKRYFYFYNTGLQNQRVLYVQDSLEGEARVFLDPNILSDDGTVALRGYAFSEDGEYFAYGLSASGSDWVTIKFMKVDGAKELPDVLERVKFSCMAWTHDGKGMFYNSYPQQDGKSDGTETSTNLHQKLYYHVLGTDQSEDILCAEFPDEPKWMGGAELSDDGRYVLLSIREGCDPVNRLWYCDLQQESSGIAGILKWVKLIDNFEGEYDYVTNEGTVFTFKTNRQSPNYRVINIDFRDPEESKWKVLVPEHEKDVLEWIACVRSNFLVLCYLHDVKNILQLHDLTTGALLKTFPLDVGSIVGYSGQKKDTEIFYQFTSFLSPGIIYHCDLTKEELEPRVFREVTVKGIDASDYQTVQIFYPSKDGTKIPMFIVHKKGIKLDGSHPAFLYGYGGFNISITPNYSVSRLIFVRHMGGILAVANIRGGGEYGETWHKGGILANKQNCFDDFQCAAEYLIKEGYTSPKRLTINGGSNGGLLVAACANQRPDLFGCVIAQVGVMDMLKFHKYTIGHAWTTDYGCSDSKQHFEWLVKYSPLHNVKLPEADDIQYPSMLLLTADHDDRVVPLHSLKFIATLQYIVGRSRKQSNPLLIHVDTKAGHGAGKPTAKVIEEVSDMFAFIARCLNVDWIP

hFAP (M39-A757) = target: T3, hFAP (M39-A757) (Homo sapiens, UniProt Q12884);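 note: surface plasmon resonance direct binding to hFAP amine-coupled on a sensor chip, rising compound concentrations by single cycle kinetics, Kd from global fit of interaction models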
T3 sequence (Q12884 39-757): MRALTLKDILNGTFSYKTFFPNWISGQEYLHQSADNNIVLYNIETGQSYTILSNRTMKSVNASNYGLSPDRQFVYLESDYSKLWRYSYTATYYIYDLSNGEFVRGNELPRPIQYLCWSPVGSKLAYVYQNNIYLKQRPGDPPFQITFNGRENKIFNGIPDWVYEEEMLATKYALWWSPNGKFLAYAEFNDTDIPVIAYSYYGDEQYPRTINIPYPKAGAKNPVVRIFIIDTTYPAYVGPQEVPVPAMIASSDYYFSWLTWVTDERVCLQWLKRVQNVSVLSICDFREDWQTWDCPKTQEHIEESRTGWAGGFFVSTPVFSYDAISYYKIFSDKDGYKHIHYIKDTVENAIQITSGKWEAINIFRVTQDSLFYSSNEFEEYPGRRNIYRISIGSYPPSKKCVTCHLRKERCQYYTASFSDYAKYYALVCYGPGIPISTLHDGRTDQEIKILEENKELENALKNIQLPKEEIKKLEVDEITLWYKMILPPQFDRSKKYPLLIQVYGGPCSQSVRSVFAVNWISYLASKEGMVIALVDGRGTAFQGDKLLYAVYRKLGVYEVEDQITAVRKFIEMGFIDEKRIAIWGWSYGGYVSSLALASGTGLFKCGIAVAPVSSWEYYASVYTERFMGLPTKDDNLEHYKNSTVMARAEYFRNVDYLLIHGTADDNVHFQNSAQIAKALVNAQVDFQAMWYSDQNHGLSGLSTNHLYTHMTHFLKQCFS

| SMILES | IC50 (hFAP) [nM] | IC50 [1] [nM] | Kd (hFAP (M39-A757)) [nM] |
| --- | --- | --- | --- |
| CC(O)c1ccc2nccc(C(=O)NCC(=O)N3CSC[C@H]3C#N)c2c1 (mixture of isomers) [Example 25, N-(2-((R)-4-Cyanothiazolidin-3-yl)-2-oxoethyl)-6-((RS)-1-hydroxyethyl)quinoline-4-carboxamide] | 0.66 | 440 | 0.8 |
| COC(C)c1ccc2nccc(C(=O)NCC(=O)N3CSC[C@H]3C#N)c2c1 (mixture of isomers) [Example 26, N-(2-((R)-4-Cyanothiazolidin-3-yl)-2-oxoethyl)-6-((RS)-1-methoxyethyl)quinoline-4-carboxamide] | 0.84 | 470 | 4.7 |
| COCC(OC)c1ccc2nccc(C(=O)NCC(=O)N3CSC[C@H]3C#N)c2c1 (mixture of isomers) [Example 30, N-(2-((R)-4-Cyanothiazolidin-3-yl)-2-oxoethyl)-6-((RS)-1,2-dimethoxyethyl)quinoline-4-carboxamide] | 1.7 | 1700 | 0.63 |
| N#C[C@@H]1CSCN1C(=O)CNC(=O)c1ccnc2ccc(C3COCCO3)cc12 (mixture of isomers) [Example 33, N-(2-((R)-4-Cyanothiazolidin-3-yl)-2-oxoethyl)-6-((RS)-1,4-dioxan-2-yl)quinoline-4-carboxamide] | 0.54 | 680 | 0.3 |
| N#C[C@@H]1CSCN1C(=O)CNC(=O)c1ccnc2ccc(C3CCCO3)cc12 (mixture of isomers) [Example 34, N-(2-((R)-4-Cyanothiazolidin-3-yl)-2-oxoethyl)-6-((RS)-tetrahydrofuran-2-yl)quinoline-4-carboxamide] | 0.61 | 460 | 0.31 |
| CC1(C)CC(c2ccc3nccc(C(=O)NCC(=O)N4CSC[C@H]4C#N)c3c2)CCO1 (mixture of isomers) [Example 68, N-(2-((R)-4-Cyanothiazolidin-3-yl)-2-oxoethyl)-6-((RS)-2,2-dimethyltetrahydro-2H-pyran-4-yl)quinoline-4-carboxamide] | 0.3 | 330 | 0.075 |
| N#C[C@@H]1CSCN1C(=O)CNC(=O)c1ccnc2ccc([C@]34CCOC[C@H]3C4)cc12 (racemic) [Example 69, 6-((1RS,6SR)-3-Oxabicyclo[4.1.0]heptan-6-yl)-N-(2-((R)-4-cyanothiazolidin-3-yl)-2-oxoethyl)quinoline-4-carboxamide] | 0.2 | 350 | 0.026 |
| N#C[C@@H]1CSCN1C(=O)CNC(=O)c1ccnc2ccc(Oc3ccccc3)cc12 [Example 1, (R)—N-(2-(4-Cyanothiazolidin-3-yl)-2-oxoethyl)-6-phenoxyquinoline-4-carboxamide] | 0.44 | 35 | 0.33 |
| N#C[C@@H]1CSCN1C(=O)CNC(=O)c1ccnc2ccc(C(F)(F)F)cc12 [Example 17, (R)—N-(2-(4-Cyanothiazolidin-3-yl)-2-oxoethyl)-6-(trifluoromethyl)-quinoline-4-carboxamide] | 0.79 | 35 | 0.91 |
| Cc1nn(C)nc1Cc1ccc2nccc(C(=O)NCC(=O)N3CSC[C@H]3C#N)c2c1 [Example 19, (R)—N-(2-(4-Cyanothiazolidin-3-yl)-2-oxoethyl)-6-((2,5-dimethyl-2H-1,2,3-triazol-4-yl)methyl)quinoline-4-carboxamide] | 0.22 | 590 | 0.1 |
| N#C[C@@H]1CSCN1C(=O)CNC(=O)c1ccnc2ccc(C3=CCOCC3)cc12 [Example 22, (R)—N-(2-(4-Cyanothiazolidin-3-yl)-2-oxoethyl)-6-(3,6-dihydro-2H-pyran-4-yl)quinoline-4-carboxamide] | 0.24 | 560 | 0.013 |
| Cc1ccc2nccc(C(=O)NCC(=O)N3CSC[C@H]3C#N)c2c1 [Example 28, (R)—N-(2-(4-cyanothiazolidin-3-yl)-2-oxoethyl)-6-methylquinoline-4-carboxamide] | 0.65 | 34 | 1.6 |
| Cc1conc1Cc1ccc2nccc(C(=O)NCC(=O)N3CSC[C@H]3C#N)c2c1 [Example 38, (R)—N-(2-(4-Cyanothiazolidin-3-yl)-2-oxoethyl)-6-((4-methylisoxazol-3-yl)methyl)quinoline-4-carboxamide] | 0.21 | 180 | 0.34 |
| Cc1cc(C)c(Cc2ccc3nccc(C(=O)NCC(=O)N4CSC[C@H]4C#N)c3c2)cn1 [Example 39, (R)—N-(2-(4-Cyanothiazolidin-3-yl)-2-oxoethyl)-6-((4,6-dimethylpyridin-3-yl)methyl)quinoline-4-carboxamide] | 0.34 | 530 | 0.18 |
| Cn1ncc(Cc2ccc3nccc(C(=O)NCC(=O)N4CSC[C@H]4C#N)c3c2)n1 [Example 41, (R)—N-(2-(4-Cyanothiazolidin-3-yl)-2-oxoethyl)-6-((2-methyl-2H-1,2,3-triazol-4-yl)methyl)quinoline-4-carboxamide] | 0.088 | 370 | 0.36 |
| N#C[C@@H]1CSCN1C(=O)CNC(=O)c1ccnc2ccc(C3(c4ccc(Cl)cn4)CC3)cc12 [Example 47, (R)-6-(1-(5-Chloropyridin-2-yl)cyclopropyl)-N-(2-(4-cyanothiazolidin-3-yl)-2-oxoethyl)quinoline-4-carboxamide] | – | 240 | 0.22 |
| N#C[C@@H]1CSCN1C(=O)CNC(=O)c1ccnc2ccc(C3(F)CCOCC3)cc12 [Example 64, (R)—N-(2-(4-Cyanothiazolidin-3-yl)-2-oxoethyl)-6-(4-fluorotetrahydro-2H-pyran-4-yl)quinoline-4-carboxamide] | – | 300 | 0.042 |
| COC1(c2ccc3nccc(C(=O)NCC(=O)N4CSC[C@H]4C#N)c3c2)CCOCC1 [Example 66, (R)—N-(2-(4-Cyanothiazolidin-3-yl)-2-oxoethyl)-6-(4-methoxy-tetrahydro-2H-pyran-4-yl)quinoline-4-carboxamide] | 0.15 | 460 | 0.15 |
| N#C[C@@H]1CSCN1C(=O)CNC(=O)c1ccnc2ccc(Cn3cccn3)cc12 [Example 80, (R)-6-((1H-Pyrazol-1-yl)methyl)-N-(2-(4-cyanothiazolidin-3-yl)-2-oxoethyl)quinoline-4-carboxamide] | – | 290 | 0.3 |
